Data set [1] in a line: Pharmacokinetics in mice after intravenous injection or gavage. The conditions noted are these: BALB/c, mouse, plasma.
Protocol: The compounds of the present invention were administered to test animals in the form of 5% DMSO + 30% PEG400 + 65% physiological saline, 10% DMSO + 10% Kolliphor HS15 + 80% Saline, 10% DMSO + 89% (25% SBE-B-CD) + (2% HCl), 20% PEG400 + 80% sterile water for injection, or 10% DMA+ 10% HS15 + 30% PEG400 + 50% sterile aqueous solution for injection. Animals were fasted for 12 hours before administration but had free access to water. For the intravenous administration group, the dose was 1 mg/kg. Blood samples (approximately 0.15 mL) were collected intravenously at the following time points after administration: 0.083, 0.25, 0.5, 1.0, 2.0, 4.0, 6.0, 8.0 and 24 h (dogs) or 0.083, 0.25, 0.5, 1.0, 2.0, 5.0, 7.0 and 24 h (mice and rats) or 0.083, 0.25, 0.5, 1.0, 2.0, 6.0, 8.0 and 24 h (monkeys). EDTA-K2 was pre-added to the blood collection tube as an anticoagulant. The blood samples were centrifuged at 12,000 rpm for 2 minutes, and plasma was collected and stored at -20 °C or - 70 °C. For the gavage administration group, the dosage was 1 mg/kg (mice, dogs, and monkeys) or 5 mg/kg (rats). After administration, venous blood samples (approximately 0.15 mL) were collected at the following time points: 0.25, 0.5, 1.0, 2.0, 4.0, 6.0, 8.0, and 24 h (dogs) or 0.25, 0.5, 1.0, 2.0, 5.0, 7.0, and 24 h (mice and rats) or 0.25, 0.5, 1.0, 2.0, 6.0, 8.0, and 24 h (monkeys). EDTA-K2 was pre-added to the blood collection tube as an anticoagulant. The blood samples were centrifuged at 12,000 rpm for 2 minutes, and plasma was collected and stored at -20 °C or -70 °C.
The collected plasma samples were processed (frozen plasma was thawed at room temperature, vortexed for 15 s to mix, 10-20 µL of plasma was taken, 120-150 µL of acetonitrile solution containing internal standard was added, vortexed for 5 min to mix, centrifuged at 4,000 rpm for 5 min, 100 µL of supernatant was taken, and 120-150 Ml/water (v/v = 1/1) was added and mixed). The concentration of compounds in the plasma was then analyzed by LC-MS/MS.
The next data set has as its target PARP2 (Homo sapiens, UniProt Q9UGN5). Kind of data set: biochemical.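 Further: PARP2 enzyme ELISA on histone-coated plates, Strep-HRP detection with chemiluminescence read-out, 10 min compound preincubation with enzyme, inhibition scaled between Max and Min signal controls.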
A further data set concerns DLD-1 BRCA2(-/-) cells. In words: Inhibition of proliferation of DLD-1 BRCA2(-/-) cells (CTG method). The format is cell-based. To be noted: Homo sapiens, DLD-1, 168 h; 7 days incubation, CellTiter-Glo. How it is done:
• 1. Cell Pretreatment: DLD-1 BRCA2(-/-) cells were cultured in growth medium 1640 + 10% FBS (fetal bovine serum) + 1% Penicillin-Streptomycin. Cells in the logarithmic growth phase were digested with trypsin-EDTA, centrifuged, and resuspended. DLD-1 BRCA2(-/-) cells were seeded at 1,000 cells/well in sterile 96-well opaque plates, 75 µl per well. After seeding, the cell culture plates were incubated overnight at 37 °C with 5% CO2 before adhesion, followed by treatment with the test compounds. • 2. DLD-1 BRCA2(-/-) Cell Drug Treatment: The test compound was prepared as a 10 mM stock solution using DMSO. The test compound was then diluted to a 4× working solution using growth medium (starting at 40 µM, with 9 4-fold dilutions). 25 µl of 4× working solution was added to each well to achieve final concentrations of 10000, 2500, 625, 156, 39, 9.7, 2.4, 0.61, and 0.152 nM, respectively. Blank control wells containing the same DMSO concentration were also included, with three replicates for each concentration. After adding the test compound, the cells were incubated at 37 °C with 5% CO2 for 7 days. • 3. After incubation, 100 µl of CellTiter-Glo® Reagent was added to each well, and […] intensity was measured. A curve was fitted using GraphPad software, and the IC50 value for cell proliferation inhibition was calculated.

The target in a further data set is PARP1 (Homo sapiens, UniProt P09874). Kind of data set: Inhibition of PARP1 enzyme activity (ELISA, chemiluminescence). The conditions noted are these: for IC50: ELISA, histone-coated plate, NAD+, 60 min at 25 °C; for Selectivity PARP2/PARP1: ratio of PARP2 IC50 to PARP1 IC50. The format is biochemical. (An ELISA detects its analyte on a solid surface through an enzyme-linked reagent.)
Chain of PARP1 (P09874 whole entry): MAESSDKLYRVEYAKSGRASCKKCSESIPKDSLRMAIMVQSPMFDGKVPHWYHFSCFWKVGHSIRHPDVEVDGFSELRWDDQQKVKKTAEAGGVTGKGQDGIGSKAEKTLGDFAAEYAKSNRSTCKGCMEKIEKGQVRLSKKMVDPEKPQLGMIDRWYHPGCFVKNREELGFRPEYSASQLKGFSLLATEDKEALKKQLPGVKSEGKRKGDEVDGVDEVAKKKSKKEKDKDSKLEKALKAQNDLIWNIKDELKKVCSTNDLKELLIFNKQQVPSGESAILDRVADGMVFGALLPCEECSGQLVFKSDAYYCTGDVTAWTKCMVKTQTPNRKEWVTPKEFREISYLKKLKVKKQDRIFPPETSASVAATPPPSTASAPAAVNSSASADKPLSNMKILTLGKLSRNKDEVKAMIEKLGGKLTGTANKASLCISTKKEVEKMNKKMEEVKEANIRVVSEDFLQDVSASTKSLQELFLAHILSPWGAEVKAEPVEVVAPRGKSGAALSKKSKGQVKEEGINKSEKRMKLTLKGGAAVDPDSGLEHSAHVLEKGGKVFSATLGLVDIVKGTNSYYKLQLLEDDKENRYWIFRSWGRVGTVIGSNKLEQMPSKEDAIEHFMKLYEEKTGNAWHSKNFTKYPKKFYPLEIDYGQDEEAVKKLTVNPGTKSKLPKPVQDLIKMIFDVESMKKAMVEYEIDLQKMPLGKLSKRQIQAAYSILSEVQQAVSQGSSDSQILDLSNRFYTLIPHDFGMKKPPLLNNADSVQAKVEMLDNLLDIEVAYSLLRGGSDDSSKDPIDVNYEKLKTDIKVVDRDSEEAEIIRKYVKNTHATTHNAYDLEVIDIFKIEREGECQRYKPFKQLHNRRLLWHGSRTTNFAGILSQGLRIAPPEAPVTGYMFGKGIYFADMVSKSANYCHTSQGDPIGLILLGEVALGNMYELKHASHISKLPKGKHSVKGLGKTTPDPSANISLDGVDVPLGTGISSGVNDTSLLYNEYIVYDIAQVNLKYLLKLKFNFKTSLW

The subject of a further data set is MDA-MB-436 cells. Kind of data set: Inhibition of proliferation of MDA-MB-436 cells (CellTiter-Glo). The format is cell-based. To be noted: Homo sapiens, MDA-MB-436, 168 h, 7 days incubation. How it is done: • 1. Cell Pretreatment: MDA-MB-436 cells were cultured in DMEM + 10% FBS + 1% penicillin-dip antibiotics + 1% ITS + 16 µg/ml glutathione. Cells in the logarithmic growth phase were digested with trypsin-EDTA, centrifuged and resuspended, and then seeded at a rate of 500-1000 cells/well in sterile 96-well opaque plates, 90 µl per well. After seeding, the cell culture plates were incubated overnight at 37°C with 5% CO2 before drug treatment. • 2. Drug treatment of MDA-MB-436 cells: The test compound was prepared as a 10 mM stock solution using DMSO. The drug was then diluted to a 10× working solution using growth medium (the compound was started at 100 µM and diluted 4-fold to achieve 9 concentrations). 10 µl of the 10× working solution was added to each well to achieve final drug concentrations of 10000, 2500, 625, 156, 39, 9.7, 2.4, 0.61, and 0.152 nM, respectively. Blank control wells containing the same DMSO concentration were also included, with three replicates for each concentration. After drug addition, the cells were incubated at 37°C with 5% CO2 for 7 days. • 3. After incubation, 100 µl of CellTiter-Glo® Reagent was added to each well, and luminescence was measured. The IC50 value of cell proliferation inhibition was calculated using GraphPad software to fit the curve. Table E: Results of the inhibitory effect of the compound of this invention on the proliferation of MDA-MB-436 cells.
(In general: In ATP-based viability assays light output follows the ATP content of the culture.)

Chain of PARP2 (Q9UGN5 whole entry): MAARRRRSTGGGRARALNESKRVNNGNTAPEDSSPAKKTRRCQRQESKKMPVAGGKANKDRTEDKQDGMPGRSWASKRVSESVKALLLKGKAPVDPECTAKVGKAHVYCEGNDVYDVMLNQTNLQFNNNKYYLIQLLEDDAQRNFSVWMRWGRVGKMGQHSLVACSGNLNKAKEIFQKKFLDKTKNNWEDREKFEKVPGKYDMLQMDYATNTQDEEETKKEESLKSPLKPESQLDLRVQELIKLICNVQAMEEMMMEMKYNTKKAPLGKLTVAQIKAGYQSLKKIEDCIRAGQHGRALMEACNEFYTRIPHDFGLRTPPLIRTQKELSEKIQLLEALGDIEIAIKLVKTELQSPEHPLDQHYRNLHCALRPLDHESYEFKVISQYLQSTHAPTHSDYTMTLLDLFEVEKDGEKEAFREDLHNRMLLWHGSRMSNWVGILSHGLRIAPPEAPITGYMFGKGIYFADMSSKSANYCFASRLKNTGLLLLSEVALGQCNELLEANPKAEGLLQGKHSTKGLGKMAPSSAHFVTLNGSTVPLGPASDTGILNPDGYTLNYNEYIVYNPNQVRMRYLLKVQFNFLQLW
Protocol for PARP1: Experimental Objective: To evaluate the inhibitory effect of the compounds of the present invention on the enzyme activities of PARP1 and PARP2 using ELISA.
• 1. histone-coated 384-well plates was prepared: 25 µL of histone solution was added to each well and incubated overnight at 4 °C. • 2. PBST buffer, blocking buffer (PBS buffer with 5% BSA and 0.05% Tween-20 added) and detection buffer (20 mM HEPES pH 7.5 + 100 mM NaCl + 2 mM DTT + 0.002% Tween-20 + 0.1% BSA) were prepared. • 3. The histone-coated 3 84-well plate was washed three times with PBST buffer, blocked at room temperature with 50 µL blocking buffer for 1 hour, and then washed three times with PBST buffer. • 4. Test compounds were prepared as 2000-fold stock solutions in DMSO. 50 nL of the stock solution was mixed with 19.95 µL detection buffer, and 5 µL of the gradient-diluted test compound was transferred to each well. • 5. Enzymatic reaction (PARP1): PARP1 & DNA mix was pre-incubated at 25 °C for 10 minutes. 10 µL of the PARP1 & DNA mix was added to each well and incubated with the test compound at room temperature for 10 minutes. […] Finally, the 384-well plate was washed three times with PBST buffer. Enzymatic reaction (PARP2): PARP2 was pre-incubated at 25 °C for 10 minutes. 10 µL of PARP2 was added to each well and incubated with the test compound at room temperature for 10 minutes. […] Finally, the 384-well plate was washed three times with PBST buffer. • 6. Detection (PARP1): 20 µL of anti-Poly/Mono-ADP Ribose Rabbit mAb was added and incubated at room temperature for 1.5 hours, followed by three washes of the 384-well plate with PBST buffer. Then, 20 µL of diluted anti-rabbit IgG, HRP-linked Antibody (diluted 1:2000 in blocking buffer) was added and incubated at room temperature for 1 hour. After washing the plate three times with PBST buffer, 25 µL of a 1:1 mixture of Femto-ECL Substrate A and Femto-ECL Substrate B was added. Detection (PARP2): 25 µL of Strep-HRP was added and incubated at room temperature for 1 hour, followed by three washes of the 384-well plate with PBS buffer. Then, 25 µL of a 1:1 mixture of Femto-ECL Substrate A and Femto-ECL Substrate B was added. • 7. Chemiluminescence intensity was measured using an Envision multimode microplate reader. • 8. Data Processing
The inhibition rate was calculated in Excel using formula (1). inh% = (Max−Signal)/(Max−Min)*100 [formula]
The IC50 value was obtained by fitting the data in XL-Fit using formula (2). Y = bottom + (top−bottom)/(1+(IC50/X)*HillSlope); [formula] wherein Y is the inhibition percentage and X is the compound concentration.

As usually defined, the AUC(0-t) is exposure summed from dosing to a finite time, without extrapolation to infinity. High values mean more exposure, low ones less exposure. The term Cmax denotes the maximum level reached in the sampled fluid or tissue. In general, half-life refers to the time in which the quantity being followed falls by half. Low values mean rapid decline, high ones slow decline. The IC50 is the point on the concentration scale where inhibition reaches its midpoint. Turning to `CNC(=O)c1ccc(N2CCN(Cc3cc(OC(F)F)c4nc(C)c(=O)[nH]c4c3F)CC2)c(F)n1` [Example 14, 5-(4-((8-(difluoromethoxy)-5-fluoro-2-methyl-3-oxo-3,4-dihydroquinoxalin-6-yl)methyl)piperazin-1-yl)-6-fluoro-N-methylpicolinamide], in data set [1] (iv, 2 mg/kg), the AUC(0-t) turned out to be 4680 ng·h/mL, the peak level (Cmax) was 2080 ng/mL and the half-life is 3.3 h. In data set [1] (po, 5 mg/kg), this molecule gave an AUC(0-t) of 16200 ng·h/mL, a Cmax of 3830 ng/mL and a half-life of 3.3 h. This molecule displayed an IC50 at PARP2 of 9660 nM. Also, in the data set with DLD-1 BRCA2(-/-) cells, it took 9.3 nM to reach half-maximal inhibition (IC50). Also, at PARP1, 27.7 nM corresponded to half-maximal inhibition (IC50) and the “Selectivity PARP2/PARP1” value is given as 348.3.
Consider `CNC(=O)c1ccc(C2=CCN(Cc3cc(OC(F)F)c4nc(C)c(=O)[nH]c4c3F)CC2)c(F)n1` [Example 16, 1'-((8-(difluoromethoxy)-5-fluoro-2-methyl-3-oxo-3,4-dihydroquinoxalin-6-yl)methyl)-2-fluoro-N-methyl-1',2',3',6'-tetrahydro-[3,4'-bipyridine]-6-carboxamide], for which the IC50 in the data set with MDA-MB-436 cells is 6.2 nM; against PARP2, > 10000 nM; against PARP1 it was 2.8 nM. For the same molecule, the “Selectivity PARP2/PARP1” value on PARP1 is >3625.
As for `CCONC(=O)c1ccc(N2CCN(Cc3cc(OC(F)F)c4nc(C)c(=O)[nH]c4c3)CC2)c(F)n1` [Example 65, 5-(4-((8-(difluoromethoxy)-2-methyl-3-oxo-3,4-dihydroquinoxalin-6-yl)methyl)piperazin-1-yl)-N-ethoxy-6-fluoropicolinamide], the IC50 came out at 80 nM against PARP2, 4.27 nM in the data set on DLD-1 BRCA2(-/-) cells and 1.9 nM on PARP1. Besides, on PARP1, the “Selectivity PARP2/PARP1” value came to 42.1.
`CNC(=O)c1ccc(N2CCN(Cc3cc(-c4ccc(F)cc4)c4nc(C)c(=O)[nH]c4c3)CC2)c(F)n1` [Example 10, 6-fluoro-5-(4-((8-(4-fluorophenyl)-2-methyl-3-oxo-3,4-dihydroquinoxalin-6-yl)methyl)piperazin-1-yl)-N-methylpicolinamide]: the IC50 is 1.7 nM in the data set on MDA-MB-436 cells and 7.5 nM in the data set with DLD-1 BRCA2(-/-) cells.
On to `CCNNC(=O)c1ccc(N2CCN(Cc3cc(OC(F)F)c4nc(C)c(=O)[nH]c4c3)CC2)c(F)n1` [Example 66, 5-(4-((8-(difluoromethoxy)-2-methyl-3-oxo-3,4-dihydroquinoxalin-6-yl)methyl)piperazin-1-yl)-N'-ethyl-6-fluoropicolinohydrazide], for which the IC50 on PARP2 came out at 143 nM; in the data set with DLD-1 BRCA2(-/-) cells, 7.02 nM; against PARP1, 2.4 nM. For the same molecule, at PARP1, the “Selectivity PARP2/PARP1” value came to 59.6.
Regarding `CNC(=O)c1ccc(N2CCN(Cc3cc(-c4ccc(OC)cc4)c4nc(C)c(=O)[nH]c4c3)CC2)c(F)n1` [Example 69, 6-fluoro-5-(4-((8-(4-methoxyphenyl)-2-methyl-3-oxo-3,4-dihydroquinoxalin-6-yl)methyl)piperazin-1-yl)-N-methylpyridine amide], the IC50 at PARP2 is 8820 nM; in the data set on DLD-1 BRCA2(-/-) cells, 32.6 nM; at PARP1 it was 3.2 nM. Moreover, the “Selectivity PARP2/PARP1” value at PARP1 is listed as 2751.7.
For the molecule `CC#Cc1cc(CN2CCN(c3ccc(C(=O)NC)nc3C)CC2)cc2[nH]c(=O)c(C)nc12` [Example 38, N,6-dimethyl-5-(4-((2-methyl-3-oxo-8-(prop-1-yn-1-yl)-3,4-dihydroquinoxalin-6-yl)methyl)piperazin-1-yl)picolinamide], the IC50 in the data set on MDA-MB-436 cells was 5 nM; in the data set with DLD-1 BRCA2(-/-) cells, 15.1 nM.
`CNC(=O)c1ccc(N2CCN(Cc3cc(-c4ccnn4C)c4nc(C)c(=O)[nH]c4c3)CC2)c(F)n1` [Example 68, 6-fluoro-N-methyl-5-(4-((2-methyl-8-(1-methyl-1H-pyrazol-5-yl)-3-oxo-3,4-dihydroquinoxalin-6-yl)methyl)piperazin-1-yl)picolinamide]: the figures for the 50% inhibitory concentration (IC50) in the data set with MDA-MB-436 cells and with DLD-1 BRCA2(-/-) cells were 35.6 nM and 33.3 nM, respectively.
The corresponding values for `CNC(=O)c1ccc(N2CCN(Cc3cc(C#Cc4ccccc4)c4nc(C)c(=O)[nH]c4c3F)CC2)c(F)n1` [Example 53, 6-fluoro-5-(4-((5-fluoro-2-methyl-3-oxo-8-(phenylethynyl)-3,4-dihydroquinoxalin-6-yl)methyl)piperazin-1-yl)-N-methylpicolinamide] are 3940 nM and 963 nM.
The corresponding values for `C=Cc1cc(CN2CCN(c3ccc(C(=O)NC)nc3F)CC2)cc2[nH]c(=O)c(C)nc12` [Example 25, 6-fluoro-N-methyl-5-(4-((2-methyl-3-oxo-8-vinyl-3,4-dihydroquinoxalin-6-yl)methyl)piperazin-1-yl)picolinamide] are 3.5 nM and 1.3 nM.
`CNC(=O)c1ccc(N2CCN(Cc3cc(Nc4ccccc4)c4nc(C)c(=O)[nH]c4c3)CC2)c(F)n1` [Example 5, 6-fluoro-N-methyl-5-(4-((2-methyl-3-oxo-8-(phenylamino)-3,4-dihydroquinoxalin-6-yl)methyl)piperazin-1-yl)picolinamide]: the concentration for half-maximal inhibition (IC50) was < 0.038 nM in the data set with MDA-MB-436 cells and 6.1 nM in the data set with DLD-1 BRCA2(-/-) cells.
Turning to `CNC(=O)c1ccc(N2CCN(Cc3cc(OC(F)(F)F)c4nc(C)c(=O)[nH]c4c3)CC2)c(C)n1` [Example 64, N,6-dimethyl-5-(4-((2-methyl-3-oxo-8-(trifluoromethoxy)-3,4-dihydroquinoxalin-6-yl)methyl)piperazin-1-yl)picolinamide], the results for the IC50 at PARP2, in the data set on DLD-1 BRCA2(-/-) cells and on PARP1 were 169 nM, 9.8 nM and 3.6 nM, respectively. Besides, at PARP1, the “Selectivity PARP2/PARP1” value is 46.9.
On to `Cc1nc2c(OC(F)F)cc(CN3CCN(c4ccc(C(=O)NC5CC5)nc4F)CC3)c(F)c2[nH]c1=O` [Example 61, N-cyclopropyl-5-(4-((8-(difluoromethoxy)-5-fluoro-2-methyl-3-oxo-3,4-dihydroquinoxalin-6-yl)methyl)piperazin-1-yl)-6-fluoropicolinamide], for which the IC50 in the data set with MDA-MB-436 cells is 20.3 nM; in the data set with DLD-1 BRCA2(-/-) cells it was 8.59 nM.
`CNC(=O)c1ccc(N2CCN(Cc3cc(OC(F)F)c4nc(C(F)F)c(=O)[nH]c4c3)CC2)c(F)n1` [Example 56, 5-(4-((8-(difluoromethoxy)-2-(difluoromethyl)-3-oxo-3,4-dihydroquinoxalin-6-yl)methyl)piperazin-1-yl)-6-fluoro-N-methylpicolinamide]: the IC50 in the data set with MDA-MB-436 cells was found to be 14.7 nM; in the data set on DLD-1 BRCA2(-/-) cells, 8.3 nM.
In the case of `CNC(=O)c1ccc(N2CCN(Cc3cc(C#CC4CC4)c4nc(C)c(=O)[nH]c4c3F)CC2)c(F)n1` [Example 22, 5-(4-((8-(cyclopropylethynyl)-5-fluoro-2-methyl-3-oxo-3,4-dihydroquinoxalin-6-yl)methyl)piperazin-1-yl)-6-fluoro-N-methylpicolinamide], the results for the IC50 on PARP2, with DLD-1 BRCA2(-/-) cells and against PARP1 were > 10000 nM, 31.8 nM and 5.5 nM, respectively. Besides, the “Selectivity PARP2/PARP1” value at PARP1 was determined as 1813.7.
As for `CC#Cc1cc(CN2CCN(c3ccc(C(=O)NC)nc3F)CC2)c(F)c2[nH]c(=O)c(C3CC3)nc12` [Example 48, 5-(4-((2-cyclopropyl-5-fluoro-3-oxo-8-(prop-1-yn-1-yl)-3,4-dihydroquinoxalin-6-yl)methyl)piperazin-1-yl)-6-fluoro-N-methylpicolinamide], it took 23.6 nM to reach half-maximal inhibition with DLD-1 BRCA2(-/-) cells (IC50).
For the molecule `CNC(=O)c1ccc(C2=CCN(Cc3cc(OC(F)F)c4nc(C)c(=O)[nH]c4c3)CC2)c(C)n1` [Example 58, 1'-((8-(difluoromethoxy)-2-methyl-3-oxo-3,4-dihydroquinoxalin-6-yl)methyl)-N,2-dimethyl-1',2',3',6'-tetrahydro-[3,4'-bipyridine]-6-carboxamide], the IC50 was found to be 2480 nM against PARP2, 13.6 nM with DLD-1 BRCA2(-/-) cells and 1.1 nM against PARP1. In addition, the “Selectivity PARP2/PARP1” value on PARP1 came to 2192.4.
